# Results: patent US12630547B2, “RAS protein degraders, pharmaceutical compositions thereof, and their therapeutic applications” (BioTheryX, Inc., priority 2019, dated 2026)
# System: MOLM-13 cells
# Assay: Cell viability assay (CELLTITER-GLO), MOLM-13 cells
# Type: cell-based
# Conditions: Homo sapiens, MOLM-13, 72 h; Table 2; compound at 10 μM, 3 days; read-out: Effect on MOLM-13 cell viability (% DMSO)
# Procedure: MOLM-13 cells, MV-4-11 cells, H23, and H358 cells were independently cultured in RPMI 1640 media supplemented with 10% fetal bovine serum, streptomycin and penicillin. The cells were plated in white walled 96-well plates at 4,000 cells/well. The cells were incubated in DMSO (control) or a compound for 3 days at 37° C. under 5% CO2. A CELLTITER-GLO® reagent (100 μL) was then added to each well. After a 10 min incubation with shaking, luminescence was measured using an ENVISION® multimode plate reader.
# In Tables 1 and 2, each compound was tested at 10 μM; and in Table 3, each compound was tested at 1 μM. In Tables 1 to 3, the cell viability values as % DMSO are reported as “A,” “B,” “C,” or “D;” where “A” represents a % viability value of less than 10%; “B” represents a % viability value of no less than 10% and less than 25%; “C” represents a % viability value of no less than 25% and less than 50%; and “D” represents a % viability value of no less than 50%. Compound A is […]
row,Compound,viability at 10 µM [%]
1,"C=CC(=O)N1CC(c2nc3ccc(-c4cc(O)cc5ccccc45)cc3c(=O)n2CC(=O)NCCOCCOCCOCCNc2cccc3c2C(=O)N(C2CCC(=O)NC2=O)C3=O)C1 (stereo not drawn) [Compound 17, 2-(2-(1-Acryloylazetidin-3-yl)-6-(3-hydroxynaphthalen-1-yl)-4-oxoquinazolin-3(4H)-yl)-N-(2-(2-(2-(2-((2-(2,6-dioxopiperidin-3-yl)-1,3-dioxoisoindolin-4-yl)amino)ethoxy)ethoxy)ethoxy)-ethyl)acetamide]",≥ 50
2,"C=CC(=O)N1CC(c2nc3ccc(-c4cc(O)cc5ccccc45)cc3c(=O)n2CCOCCNCc2ccc(OCc3scc4c3CN(C3CCC(=O)NC3=O)C4=O)cc2)C1 (stereo not drawn) [Compound 21, 3-(1-((4-(((2-(2-(2-(1-Acryloylazetidin-3-yl)-6-(3-hydroxynaphthalen-1-yl)-4-oxoquinazolin-3(4H)-yl)ethoxy)ethyl)amino)methyl)phenoxy)methyl)-4-oxo-4H-thieno[3,4-c]pyrrol-5(6H)-yl)piperidine-2,6-dione]",≥ 50
3,"C=CC(=O)N1CC(N2Cc3ccc(-c4cc(O)cc5ccccc45)cc3N(CCOCCOCCC(=O)NCCOc3cccc4c3C(=O)N(C3CCC(=O)NC3=O)C4=O)C2=O)C1 (stereo not drawn) [Compound 11, 3-(2-(2-(3-(1-Acryloylazetidin-3-yl)-7-(3-hydroxynaphthalen-1-yl)-2-oxo-3,4-dihydroquinazolin-1(2H)-yl)ethoxy)ethoxy)-N-(2-((2-(2,6-dioxopiperidin-3-yl)-1,3-dioxoisoindolin-4-yl)oxy)ethyl)propanamide]",≥ 50
4,"C=CC(=O)N1CC(c2nc3ccc(-c4cc(O)cc5ccccc45)cc3c(=O)n2CCNCc2ccc(OCc3scc4c3CN(C3CCC(=O)NC3=O)C4=O)cc2)C1 (stereo not drawn) [Compound 18, 3-(1-((4-(((2-(2-(1-Acryloylazetidin-3-yl)-6-(3-hydroxynaphthalen-1-yl)-4-oxoquinazolin-3(4H)-yl)ethyl)amino)methyl)phenoxy)methyl)-4-oxo-4H-thieno[3,4-c]pyrrol-5(6H)-yl)piperidine-2,6-dione]",≥ 50
5,"C=CC(=O)N1CC(N2Cc3ccc(-c4cc(O)cc5ccccc45)cc3N(CCCCNCc3ccc(OCc4scc5c4CN([C@H]4CCC(=O)NC4=O)C5=O)cc3)C2=O)C1 [Compound 16, (S)-3-(1-((4-(((4-(3-(1-Acryloylazetidin-3-yl)-7-(3-hydroxynaphthalen-1-yl)-2-oxo-3,4-dihydroquinazolin-1(2H)-yl)butyl)amino)methyl)phenoxy)methyl)-4-oxo-4H-thieno[3,4-c]pyrrol-5(6H)-yl)piperidine-2,6-dione]",≥ 50
6,"CCC(=O)N1CCN(c2ncnc3c(F)c(-c4c(F)cccc4OCCCCCCCNC(=O)NCc4scc5c4CN(C4CCC(=O)NC4=O)C5=O)c(Cl)cc23)CC1 (stereo not drawn) [Compound 28, 1-(7-(2-(6-Chloro-8-fluoro-4-(4-propionylpiperazin-1-yl)quinazolin-7-yl)-3-fluorophenoxy)heptyl)-3-((5-(2,6-dioxopiperidin-3-yl)-4-oxo-5,6-dihydro-4H-thieno[3,4-c]pyrrol-1-yl)methyl)urea]",< 10
7,"C=CC(=O)N1CC(N2Cc3ccc(-c4cc(O)cc5ccccc45)cc3N(CCCCNCc3ccc(OCc4scc5c4CN(C4CCC(=O)NC4=O)C5=O)cc3)C2=O)C1 (stereo not drawn) [Compound 19, 3-(1-((4-(((4-(3-(1-Acryloylazetidin-3-yl)-7-(3-hydroxynaphthalen-1-yl)-2-oxo-3,4-dihydroquinazolin-1(2H)-yl)butyl)amino)methyl)phenoxy)methyl)-4-oxo-4H-thieno[3,4-c]pyrrol-5(6H)-yl)piperidine-2,6-dione]",≥ 50
8,"C=CC(=O)N1CCN(c2ncnc3c(F)c(-c4c(F)cccc4OCCCCCCCNC(=O)NCc4scc5c4CN(C4CCC(=O)NC4=O)C5=O)c(Cl)cc23)CC1 (stereo not drawn) [Compound 27, 1-(7-(2-(4-(4-Acryloylpiperazin-1-yl)-6-chloro-8-fluoroquinazolin-7-yl)-3-fluorophenoxy)heptyl)-3-((5-(2,6-dioxopiperidin-3-yl)-4-oxo-5,6-dihydro-4H-thieno[3,4-c]pyrrol-1-yl)methyl)urea]",< 10
9,"CCC(=O)N1CCN(c2ncnc3c(F)c(-c4c(F)cccc4OCCOCCOCCC(=O)NCCNc4cccc5c4CN(C4CCC(=O)NC4=O)C5=O)c(Cl)cc23)CC1 (stereo not drawn) [Compound 30, 3-(2-(2-(2-(6-chloro-8-fluoro-4-(4-propionylpiperazin-1-yl)quinazolin-7-yl)-3-fluorophenoxy)ethoxy)ethoxy)-N-(2-((2-(2,6-dioxopiperidin-3-yl)-1-oxoisoindolin-4-yl)amino)ethyl)propanamide]",≥ 50
10,"CCC(=O)N1CCN(c2ncnc3c(F)c(-c4c(F)cccc4OCCCCCCCCNc4cccc5c4C(=O)N(C4CCC(=O)NC4=O)C5=O)c(Cl)cc23)CC1 (stereo not drawn) [Compound 33, 4-((8-(2-(6-Chloro-8-fluoro-4-(4-propionylpiperazin-1-yl)quinazolin-7-yl)-3-fluorophenoxy)octyl)amino)-2-(2,6-dioxopiperidin-3-yl)isoindoline-1,3-dione]",25 to 50
11,"CCC(=O)N1CC(N2Cc3ccc(-c4cc(O)cc5ccccc45)cc3N(CC(=O)NCCCCCCCN3CCC(c4cc(F)cc5c4CN(C4CCC(=O)NC4=O)C5=O)CC3)C2=O)C1 (stereo not drawn) [Compound 35, N-(7-(4-(2-(2,6-Dioxopiperidin-3-yl)-6-fluoro-1-oxoisoindolin-4-yl)piperidin-1-yl)heptyl)-2-(7-(3-hydroxynaphthalen-1-yl)-2-oxo-3-(1-propionylazetidin-3-yl)-3,4-dihydroquinazolin-1(2H)-yl)acetamide]",10 to 25
12,"CC(=O)N1CCN(c2ncnc3c(F)c(-c4c(F)cccc4OCCOCCOCCOCCNc4cccc5c4C(=O)N(C4CCC(=O)NC4=O)C5=O)c(Cl)cc23)CC1 (stereo not drawn) [Compound 31, 4-((2-(2-(2-(2-(2-(4-(4-Acetylpiperazin-1-yl)-6-chloro-8-fluoroquinazolin-7-yl)-3-fluorophenoxy)ethoxy)ethoxy)ethoxy)ethyl)amino)-2-(2,6-dioxopiperidin-3-yl)isoindoline-1,3-dione]",≥ 50

# Same assay, conditions: Homo sapiens, MOLM-13, 72 h; Table 3; compound at 1 μM, 3 days; read-out: Effect on MOLM-13 cell viability (% DMSO)
row,Compound,viability at 1 µM [%]
1,"CCC(=O)N1CCN(c2ncnc3c(F)c(-c4c(F)cccc4OCCOCCOCCC(=O)NCCOc4cccc5c4C(=O)N(C4CCC(=O)NC4=O)C5=O)c(Cl)cc23)CC1 (stereo not drawn) [Compound 8, 3-(2-(2-(2-(6-Chloro-8-fluoro-4-(4-propionylpiperazin-1-yl)quinazolin-7-yl)-3-fluorophenoxy)ethoxy)ethoxy)-N-(2-((2-(2,6-dioxopiperidin-3-yl)-1,3-dioxoisoindolin-4-yl)oxy)ethyl)propanamide]",≥ 50
2,"CCC(=O)N1CCN(c2ncnc3c(F)c(-c4c(F)cccc4OCCOCCOCCOCCNc4cccc5c4C(=O)N(C4CCC(=O)NC4=O)C5=O)c(Cl)cc23)CC1 (stereo not drawn) [Compound 9, 4-((2-(2-(2-(2-(2-(6-Chloro-8-fluoro-4-(4-propionylpiperazin-1-yl)quinazolin-7-yl)-3-fluorophenoxy)ethoxy)ethoxy)ethoxy)ethyl)amino)-2-(2,6-dioxopiperidin-3-yl)isoindoline-1,3-dione]",≥ 50
3,"C=CC(=O)N1CC(N2Cc3ccc(-c4cc(O)cc5ccccc45)cc3N(CCOCCC(=O)NCCOc3cccc4c3C(=O)N(C3CCC(=O)NC3=O)C4=O)C2=O)C1 (stereo not drawn) [Compound 10, 3-(2-(3-(1-Acryloylazetidin-3-yl)-7-(3-hydroxynaphthalen-1-yl)-2-oxo-3,4-dihydroquinazolin-1(2H)-yl)ethoxy)-N-(2-((2-(2,6-dioxopiperidin-3-yl)-1,3-dioxoisoindolin-4-yl)oxy)ethyl)propanamide]",≥ 50
4,"CCC(=O)N1CC(N2Cc3ccc(-c4cc(O)cc5ccccc45)cc3N(CCOCCNCc3ccc(OCc4scc5c4CN(C4CCC(=O)NC4=O)C5=O)cc3)C2=O)C1 (stereo not drawn) [Compound 5, 3-(1-((4-(((2-(2-(7-(3-Hydroxynaphthalen-1-yl)-2-oxo-3-(1-propionylazetidin-3-yl)-3,4-dihydroquinazolin-1(2H)-yl)ethoxy)ethyl)amino)methyl)phenoxy)methyl)-4-oxo-4H-thieno[3,4-c]pyrrol-5(6H)-yl)piperidine-2,6-dione]",≥ 50
5,"CCC(=O)N1CC(N2Cc3ccc(-c4cc(O)cc5ccccc45)cc3N(CCOCCOCCC(=O)NCCOc3cccc4c3C(=O)N(C3CCC(=O)NC3=O)C4=O)C2=O)C1 (stereo not drawn) [Compound 7, N-(2-((2-(2,6-Dioxopiperidin-3-yl)-1,3-dioxoisoindolin-4-yl)oxy)ethyl)-3-(2-(2-(7-(3-hydroxynaphthalen-1-yl)-2-oxo-3-(1-propionylazetidin-3-yl)-3,4-dihydroquinazolin-1(2H)-yl)ethoxy)ethoxy)propanamide]",≥ 50
6,"CCC(=O)N1CC(N2Cc3ccc(-c4cc(O)cc5ccccc45)cc3N(CCNCc3ccc(OCc4scc5c4CN(C4CCC(=O)NC4=O)C5=O)cc3)C2=O)C1 (stereo not drawn) [Compound 4, 3-(1-((4-(((2-(7-(3-Hydroxynaphthalen-1-yl)-2-oxo-3-(1-propionylazetidin-3-yl)-3,4-dihydroquinazolin-1(2H)-yl)ethyl)amino)methyl)phenoxy)methyl)-4-oxo-4H-thieno[3,4-c]pyrrol-5(6H)-yl)piperidine-2,6-dione]",10 to 25
